These results are taken from US20220135564A1, “DEUTERATED MITRAGYNINE ANALOGS AS SAFER OPIOID MODULATORS IN THE MITRAGYNINE CLASS” (The Trustees of Columbia University in the City of New York, priority 2019, published 2022).

The nature of data set [1]: Stability and metabolite formation in dog plasma. The data set is classed as in vitro ADME. The following applies: 1 μM, 37° C., over 120 minutes. On the procedure:
Stability and Metabolite Formation in Dog Plasma. Beagle dog plasma with Na citrate (Innovatine Research, Inc., lot #IBG-NaCitrate-28323) was used in this study. Plasma incubations were carried out in 5 aliquots of 70 μL each (one for each time point), in duplicate. Test compounds (1 μM, final DMSO concentration 1%) were incubated at 37° C. with shaking at 100 rpm. Five time points over 120 minutes were analyzed. The reactions were stopped by adding 400 μL of acetonitrile-methanol mixture (1:1) with subsequent plasma protein sedimentation by centrifugation at 5500 rpm for 5 minutes.

Data set [2] can be described thus: HLM metabolite formation. The following applies: 2 μM, 37° C., over 40 minutes. As for the experimental part: HLM Metabolite Formation. Pooled HLM from 50 adult male and female donors (XenoTech H0630, lot 1610016) were used. Microsomal incubations of mitragynine and 3-DM were carried out in 96-well plates in 5 aliquots of 40 μL each (one for each time point). Liver microsomal incubation medium contained PBS (100 mM, pH 7.4), MgCl2 (3.3 mM), NADPH (3 mM), glucose-6-phosphate (5.3 mM), glucose-6-phosphate dehydrogenase (0.67 units/mL) with 0.42 mg of liver microsomal protein per ml. Control incubations were performed replacing the NADPH-cofactor system with PBS. Test compounds (2 μM, final solvent concentration 1.6%) were incubated with microsomes at 37° C., shaking at 100 rpm. Incubations were performed in duplicate. Five time points over 40 minutes were analyzed. The reactions were stopped by adding 8 volumes of 90% acetonitrile-water to incubation aliquots, followed by protein sedimentation by centrifugation at 5500 rpm for 3 minutes. Supernatants were analyzed for parent compound remaining and metabolites DHM (both mitragynine and 3-DM incubations), 7-OH (mitragynine incubations), and 3-d-7-OH (3-DM incubations), using a fit-for-purpose liquid chromatography-tandem mass spectrometry (LC-MS/MS) method, with authentic samples of each analyte used for calibration and identification.

The nature of data set [3]: Mouse brain homogenate (MBH) stability and metabolite formation. It counts as in vitro ADME. The following applies: 2 μM, 37° C., over 120 minutes. On the procedure: MBH Preparation. Male BALB/c mice (12-14 weeks old) were housed in polypropylene cages with free access to standard commercial food pellets and tap water. Animals were sacrificed by cervical dislocation immediately prior to brain homogenate preparation. Brains from 10 mice were fragmented into small pieces and homogenized in ice-cold artificial cerebrospinal fluid solution (ACSF: 126 mM NaCl, 2.68 mM KCl, 1 mM Na2HPO4, 0.88 mM MgSO4, 22 mM NaHCO3, 1.45 mM CaCl2, 10 mM HEPES, 11 mM D-glucose, pH 7.4) using a TH-01 OMNI homogenizer. Samples were centrifuged at 1500×g for 10 minutes. Supernatants were decanted and collected. Total protein concentration was determined by Bradford assay and equaled 17.7 mg/mL. The obtained brain homogenate was flash-frozen in liquid nitrogen. Aliquots were stored at −70° C. until use.
MBH Stability and Metabolite Formation. […] The incubation medium consisted of artificial cerebrospinal fluid solution (ACSF: 126 mM NaCl, 2.68 mM KCl, 1 mM Na2HPO4, 0.88 mM MgSO4, 22 mM NaHCO3, 1.45 mM CaCl2, 10 mM HEPES, 11 mM D-glucose, pH 7.4) with 2 mg of brain protein per mL. Test compounds (2 μM, final solvent concentration 1%) were incubated with brain homogenate at 37° C., shaking at 100 rpm. Incubations were performed in duplicate. Six time points over 120 minutes were analyzed.

Data set [4] can be described thus: Pharmacokinetics in 129S1 mice, brain metabolite concentrations at 15 minutes. As to conditions: male 129S1 mice, 10 mg/kg s.c.
A short description of data set [5]: MS9 metabolite formation (M1, M4, M6) from mitragynine and 3-DM. The data set is classed as in vitro ADME, mouse. As to conditions: 2 μM, 37° C., over 60 minutes, MS peak area, compared to mitragynine. As for the experimental part: MS9 Metabolite Formation. Liver S9 fraction pooled from male CD-1 mice was used. […] Control incubations were performed replacing the cofactor system with phosphate buffer. […] Incubations were performed in duplicate. Five time points over 60 minutes were analyzed. […] Supernatants were analyzed for remaining parent compound and metabolites by liquid chromatography-tandem mass spectrometry (LC-MS/MS).

Data set [6] is described as follows: Pharmacokinetics in C57BL/6 mice, plasma and brain metabolite concentrations. The following applies: male C57BL/6 mice, 10 mg/kg s.c., 0.083-24 h. On the procedure:
Animals. Healthy male C57BL/6 mice (8-12 weeks old) weighing between 19 to 28 g were procured from Global, India. Four mice were housed in each cage. Temperature and humidity were maintained at 22±3° C. and 30-70%, respectively and illumination was controlled on a 12-h light/dark cycle. Temperature and humidity were recorded by an auto-controlled data logger system. All animals were provided a laboratory rodent diet (Envigo Research Private Ltd, Hyderabad, India) and reverse osmosis water treated with ultraviolet light was provided ad libitum.
Drugs. Mitragynine and 3-DM were dissolved in normal saline made slightly acidic (˜pH 3) with 1M aqueous HCl. Drugs were administered subcutaneously at a volume of 10 mL/kg body weight and a dose of 10 mg/kg.
Pharmacokinetics. Blood samples (approximately 60 μL) were collected under light isoflurane anesthesia from the retro orbital plexus at 0.083, 0.25, 0.5, 1, 2, 4, 8 and 24 h (4 animals per time point). Plasma samples were separated by centrifugation of whole blood and stored below −70° C. until bioanalysis. Immediately after collection of blood, mice were euthanized and brain samples were collected at 0.083, 0.25, 0.5, 1, 2, 4, 8 and 24 h (4 animals per time point). Brain samples were homogenized using ice-cold phosphate buffered saline (pH 7.4) and homogenates were stored below −70° C. until analysis. Total homogenate volume was three times the tissue weight. Aliquots (25 μL) of each study sample (dilution factor applied for several samples) or spiked calibration standard were added to individual micro-centrifuge tubes followed by 100 μL of internal standard solution prepared in acetonitrile (Glipizide, 500 ng/mL; except for blank, where 100 μL of acetonitrile was added). Samples were vortexed for 5 minutes and then centrifuged for 5 minutes at a speed of 4000 rpm at 4° C. Following centrifugation, supernatants were analyzed for metabolites DHM (both mitragynine and 3-DM treatment) and 7-OH (mitragynine treatment) or 3-d-7-OH (3-DM treatment), using a fit-for-purpose liquid chromatography-tandem mass spectrometry (LC-MS/MS) method, with authentic samples of each analyte used for calibration and identification.

In data set [7] the test system is Male Sprague-Dawley rats. Kind of data set: Rat tail-flick assay (analgesic activity). The data set is classed as in vivo. The following applies: oral gavage, 50° C. hot-water bath, 30 minutes after administration. On the procedure: Animals. Male Sprague-Dawley rats, aged 7-8 weeks, were used in experiments. Animals were housed under controlled temperatures and 12-hour light/dark cycles (lights on at 06:00-18:00 h), with ad libitum food and water. The study was approved by the Institutional Animal Care and Use Committee (IACUC) at WuXi AppTec (Shanghai). WuXi's animal facilities and IACUC are fully accredited by the Association for Assessment and Accreditation of Laboratory Animal Care International (AAALAC). All efforts were made to minimize animal suffering.
Drugs and Drug Administration. Drugs were prepared as described above and administered by oral gavage at a volume of 5 mL/kg in de-ionized water acidified with acetic acid.
Tail-Flick. Analgesic activity was assessed in the tail-flick assay 30 minutes (peak effect) after administration of vehicle and each dose of drug (n=8 per treatment). Animals were tested for their latency to withdraw their tails from a hot water bath maintained at 50° C. with a room temperature of 22° C. A cutoff time of 7 seconds was used to prevent tissue damage. Data were analyzed as percent maximal effect, % MPE, which was calculated according to the formula: % MPE=[(observed latency−vehicle latency)/(maximal latency−vehicle latency)]×100. Dose-response curves were fit by nonlinear regression (GraphPad Prism, La Jolla, Calif.).
(Hot-plate and tail-flick tests time the reaction to a heat stimulus.)

The nature of data set [8]: Simulated gastric fluid (SGF) incubations monitored by NMR. It counts as physicochemical. The following applies: deuterated SGF, 1.3 mg/mL, room temperature. On the procedure: SGF Incubations. Deuterated SGF (to permit direct NMR monitoring of the reactions) was prepared by combining NaCl (10 mg) and 37% DCl in D2O (35 μL) and diluting up to a final volume of 5.0 mL with D2O. Solutions of 7-OH and 3-d-7-OH in deuterated SGF were prepared at a concentration of 1.3 mg/mL containing N-methyl-2-pyrrolidone (NMP) as an internal standard (IS) at a concentration of 3.33 μL/mL and the reaction mixtures were left to stand at room temperature. NMR spectra were recorded on a Bruker 500 MHz instrument at the following time points: 35, 65, 125, 245, 365, and 1440 minutes (relative to time of solution mixing). Chemical shifts were referenced to the D2O residual solvent peak at 4.79 ppm. Decomposition of parent compounds was quantified by the peak area ratio of a doublet at 6.63 ppm (corresponding to 7-OH and 3-d-7-OH) and a singlet at 2.84 ppm (corresponding to IS). These ratios, calculated at each time point, were normalized to the ratio determined at 35 minutes to obtain values as percent remaining (100% at 35 minutes). Concentration of DHM was determined at each time point by comparing the peak areas of a doublet at 6.70 ppm (corresponding to DHM) and a singlet at 2.84 ppm (corresponding to IS) and using the known concentration of internal standard (3.33 μL/mL=34.5 mM). The concentration of DHM formed from 3-d-7-OH was below the lower limit of quantitation of -0.1 mM at the 35-, 65-, and 125-minute time points.

[9] abbreviates: compared to 7-OH from mitragynine.
Setting [10] is: 35-1440 minutes, compared to 7-OH.

For the compound `CC[C@@H]1CN2CC[C@@]3(O)C(=Nc4cccc(OC)c43)[C@@H]2C[C@@H]1/C(=C\OC)C(=O)OC` [7-OH, 7-Hydroxymitragynine, reference compound], the “decomposition of parent compound in dog plasma” value in data set [1] was “unstable”.
As to `[2H][C@@]12C[C@H](/C(=C\OC)C(=O)OC)[C@H](CC)CN1CCc1c2[nH]c2cccc(OC)c12` [3-DM, 3-Deuteromitragynine], the “formation of 7-hydroxy active metabolite (3-d-7-OH) in HLMs” value in data set [2] (setting [9]) is “little effect”. In addition, the “concentration of toxic metabolite DHM formed in HLMs” value in data set [2] (compared to mitragynine) is “greatly attenuated”. The “decomposition of parent compound in MBH” value in data set [3] was “attenuated the decomposition”. The “formation of DHM in MBH” value in data set [3] (compared to mitragynine) is “attenuated formation of DHM”. In data set [4] (setting [9]), the “brain concentration of 7-hydroxy active metabolite (3-d-7-OH)” value was “little effect”. Also, the “brain concentration of DHM” value in data set [4] (compared to mitragynine) is “greatly attenuated”. In data set [5], the “formation of metabolite M1 in MS9” value is “greatly attenuated”, the “formation of metabolite M4 in MS9” value is recorded as “greatly attenuated” and the “formation of metabolite M6 in MS9” value was “greatly attenuated”. In data set [6] (setting [9]), the “brain concentration of active metabolite 3-d-7-OH” value is “no effect” and the “plasma concentration of active metabolite 3-d-7-OH” value is “no effect”. Further, in data set [6] (compared to mitragynine), the “brain concentration of DHM” value is given as “greatly attenuated” and the “plasma concentration of DHM” value is “greatly attenuated”. Besides, in data set [7], the “analgesic effect in the tail-flick assay” value was “dose-dependent analgesic effects”.
For `[2H][C@@]12C[C@H](/C(=C\OC)C(=O)OC)[C@H](CC)CN1CC[C@@]1(O)C2=Nc2cccc(OC)c21` [3-d-7-OH, 3-Deutero-7-hydroxymitragynine], in data set [8] (setting [10]), the “decomposition of parent compound in SGF” value is “did not slow decomposition” and the “formation of toxic metabolite DHM in SGF” value was “greatly attenuated”. Further, the “concentration of DHM formed in SGF” value in data set [8] (35-, 65-, and 125-minute time points, below lower limit of quantitation) is below -100 µM. For the same compound, the “decomposition of parent compound in dog plasma” value in data set [1] is “attenuated the decomposition”. Further, the “formation of DHM in dog plasma” value in data set [1] (compared to 7-OH) is “attenuated formation of DHM”.
On to `CC[C@@H]1CN2CCc3c([nH]c4cccc(OC)c34)[C@@H]2C[C@@H]1/C(=C\OC)C(=O)OC` [Mitragynine], for which the “decomposition of parent compound in MBH” value in data set [3] is listed as “unstable”. Also, in data set [7], the “analgesic effect in the tail-flick assay” value is “dose-dependent analgesic effects”.
